Here are results for three molecules from PMC1190152, “Archazolid and apicularen: Novel specific V-ATPase inhibitors” (BMC Biochemistry, 2005).

Read-outs that look alike come from different tables or passages of the source.

In one experiment the test system is L-929. Briefly: Growth inhibition of L-929 cells (MTT assay). The format is cell-based. The following applies: Mus musculus, L929, 120 h; L-929, murine connective tissue; MTT after 5 days. The protocol:
(§1) Cell lines were obtained from the German Collection of Microorganisms and Cell Cultures (DSMZ). Cell lines 3Y1 and M1 (embryonal fibroblasts from 129/Ola × C57BL/6 mice, [30]) were a generous gift from Dr. S. Miyamoto, Fukoka, Japan, and Dr. P. F. Mühlradt, Braunschweig, Germany. All cell lines were cultivated under conditions recommended by the supplier. Growth inhibition was measured in microtiterplates. Aliquots of 120 μl of the suspended cells (50,000/ml) were given to 60 μl of a serial dilution of the inhibitor. After 5 days, growth was determined using the MTT assay.

A further experiment has as its system 3Y1. The experiment is described as follows: Growth inhibition of 3Y1 cells (MTT assay). The format is cell-based, rat. The following applies: 120 h; 3Y1, rat embryogenic fibroblast cell line; MTT after 5 days; read-out: IC50 growth inhibition. As to the method:
as §1
Background: Formazan colour is commonly taken as a measure of viable cells.

Another experiment relates to KB-V1. Briefly: Growth inhibition of multidrug-resistant KB-V1 cells (MTT assay), with or without verapamil. It is filed as cell-based. The following applies: 120 h; KB-V1, mdr human cervix carcinoma; without verapamil; MTT after 5 days. The protocol:
The novel antibiotics archazolids and apicularens (Fig. 1) were checked for their impact on the cell growth of a variety of mammalian cell lines from different tissues (Tab. 1). […] Apicularen B was the only exception, with an average IC50 value two orders of magnitude higher. Growth inhibition of the multidrug-resistant cell line KB-V1 was also measured in the presence of verapamil. […] The data in Tab 1. show, that unlike the archazolids, the apicularens are poor substrates of Pgp. To visualize the impact of the antibiotics, PtK2 (potoroo kidney) cells were incubated with the inhibitors and stained for intact acidic lysosomes (Fig. 2). […] The same observation was made with KB-3-1 cells (data not shown). […] Unlike the cell lines listed in Tab. 1, the growth of PtK2 cells was not completely stopped. The same holds true for A-498 cells (human kidney carcinoma). Both cell lines grow epithelial-like. There was obviously a differential reaction of cell lines to V-ATPase inhibitors. For A-431 cells (human epidermoid carcinoma) a dependence on the expression of the EGF receptor was shown.
as §1

The subject of a further experiment is M1. Briefly: Growth inhibition of M1 cells (MTT assay). It is filed as cell-based, mouse. The following applies: 120 h; M1, mouse embryogenic fibroblast cell line; MTT after 5 days; read-out: IC50 growth inhibition. The protocol:
as §1

Experiment [1] addresses T1, V-ATPase holoenzyme from the midgut of the tobacco hornworm (Manduca sexta, UniProt P31403).
T1 construct: purified V-ATPase holoenzyme from the midgut of the tobacco hornworm; from tissue; host or cells: midgut of fifth instar Manduca sexta larvae
The experiment is described as follows: Inhibition of purified V-ATPase holoenzyme activity. It is filed as biochemical. The protocol:
(§2) The V-ATPase holoenzyme was purified as published elsewhere. Preparation of highly purified membranes containing Na^+/K^+-ATPase from pig kidney followed the protocol of Jørgensen with the three main steps of differential centrifugation, incubation with SDS in the presence of ATP and sucrose density gradient centrifugation in a fixed angle rotor, and led to a specific enzyme activity which was in the same range as that reported by the authors. The resulting sample was stored frozen at -20°C. To prepare crude membrane extracts, the hearts of three mice were washed three times with an ice-cold buffer of pH 8.1 consisting of 0.25 M sucrose, 5 mM Tris-HCl, 5 mM EDTA, and 10 mM Pefabloc SC (Biomol), homogenized in 5 ml of this buffer and centrifuged at 4°C for 25 min at 233,000 × gmax in a fixed angle rotor. The resulting pellet was resuspended in 5 ml of a buffer of pH 7.5, consisting of 5 mM Tris-MOPS (3-morpholinopropanesulfonic acid), 10 mM NaCl, 10 mM Pefabloc SC, 9.6 mM 2-mercaptoethanol, 0.53 mM EGTA and 0.1 % Triton X-100. After an aliquot for protein determination had been taken, 10% bovine serum albumin (final concentration) was added to the suspension which was then stored on ice until the activity assays were run. Beef heart mitochondria were isolated by differential centrifugation, following the protocol of Smith by using a blender to homogenize the heart mince. The initial homogenization buffer consisted of 250 mM saccharose, 10 mM KH2PO4, 10 mM Tris, 2 mM EGTA, 2 mM MgCl2, pH 7.4, and further isolation procedures were carried out in the same medium without EGTA [24]. Submitochondrial particles were obtained by ultrasonic treatment of the mitochondria.
(§3) Standard V-ATPase assays with a final volume of 160 μl and a pH of 8.1 consisted of 3–4 μg of protein, 50 mM Tris-MOPS, 3 mM 2-mercaptoethanol, 1 mM MgCl2, 20 mM KCl, 0.003% C12E10, 20 mM NaCl, and 3 mM Tris-HCl. After 5 min of pre-incubation at 30°C with or without inhibitors, 1 mM Tris-ATP was added and after incubation for 2 min the reaction was stopped by placing the tube in liquid nitrogen. Assays using Na^+/K^+-ATPase were performed in 160 μl at pH 7.5 and contained 0.5 μg of protein, 50 mM Tris-MOPS, 5 mM imidazole, 0.2 mM EDTA, 4 mM MgCl2, 20 mM KCl and 100 mM NaCl. After 5 min of pre-incubation at 37°C with or without inhibitors, 3 mM Tris-ATP was added and after 1 min of incubation the reaction was stopped by placing the tube in liquid nitrogen. […] After 5 min of pre-incubation at 30°C with or without inhibitors, 1 mM Tris-ATP was added and after an incubation time of 10 min the reaction was stopped by placing the tubes in liquid nitrogen. ATPase assays with submitochondrial particles from beef heart were performed in a final volume of 1 ml and a pH of 8.0. The samples contained 9–12 μg protein, 50 mM Tris, 50 mM KCl and 2.5 mM MgCl2. After 5 min of preincubation with or without inhibitors, 5 mM ATP was added, and after an additional incubation time of 15 min the reaction was stopped by the addition of 0.4 ml of 20 % TCA.
(§4) Inorganic phosphate produced in the assays of V-ATPase, Na^+/K^+-ATPase and mouse heart F-ATPase was measured according the protocol of Wieczorek et al., while the determination of inorganic phosphate produced in the assays of beef heart F-ATPase followed the method of Fiske and Subarrow using ascorbic acid as reducing agent.
Fifth instar larvae of M. sexta (Lepidoptera, Sphingidae), weighing 6–8 g, were reared under long day conditions (16 h of light) at 27°C using a synthetic diet modified according to Bell et al.

A further experiment has as its system A-594. Set-up: method as in PMID 10048565. The following applies: A-594, human lung carcinoma; ref [15]; read-out: IC50 growth inhibition; cited from earlier work.
The next experiment relates to bacterial growth. The following applies: ref [11],[15],[17]; cited from earlier work.
Experiment [2] concerns the target T2, F-ATPase (Mus musculus, UniProt P56480).
T2 construct: we prepared mitochondria rich crude membranes from mouse heart; from tissue; host or cells: mouse heart, crude membrane extract
The experiment is described as follows: Inhibition of F-ATPase activity in crude membranes from mouse heart. The following applies: mouse heart crude membranes. It is filed as biochemical. The protocol: as §2, §3, §4

Experiment [3] addresses T3, F-ATPase (Bos taurus, UniProt P00829).
T3 construct: Submitochondrial particles were obtained by ultrasonic treatment of the mitochondria; from tissue; host or cells: beef heart mitochondria, submitochondrial particles
The experiment is described as follows: Inhibition of F-ATPase activity in submitochondrial particles from beef heart. The following applies: beef heart submitochondrial particles. It is filed as biochemical. The protocol: as §2, §3, §4

In another experiment the test system is fungi. The following applies: ref [11],[15],[17]; cited from earlier work.
Experiment [4] concerns the target T1, V-ATPase holoenzyme from the midgut of the tobacco hornworm. Set-up: method as in PMID 12186879. The following applies: ref [10], cited from earlier work.
For another experiment, the target named is T4, Vo subunit c (Manduca sexta, UniProt P31403).
T4 construct: from tissue; host or cells: midgut of Manduca sexta larvae (purified V-ATPase)
Set-up: method as in PMID 12186879. The following applies: previous study; ref [10]; cited from earlier work.

The test system of another experiment is mammalian V-ATPases. The following applies: ref [11],[15],[17]; cited from earlier work.
Another experiment deals with V-ATPases from fungi. The following applies: Saccharomyces cerevisiae or Neurospora crassa; ref [11],[15],[17]; cited from earlier work.

T1 sequence (P31403 whole entry): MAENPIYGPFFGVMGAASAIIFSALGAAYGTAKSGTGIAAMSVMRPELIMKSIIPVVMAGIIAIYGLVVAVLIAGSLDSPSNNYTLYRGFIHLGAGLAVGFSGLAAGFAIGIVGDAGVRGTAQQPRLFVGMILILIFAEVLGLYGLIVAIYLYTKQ
T4 sequence (P31403 whole entry): as above

Turning to `CC/C=C\C=C/C(=O)N/C=C/CC1CC2CC(O[C@@H]3O[C@H](CO)[C@@H](O)[C@H](O)[C@H]3NC(C)=O)CC(Cc3cccc(O)c3C(=O)O1)O2` (stereo partly shown) [apicularen B], the IC50 in the experiment on L-929 was 620 nM; in the experiment on 3Y1, 310 nM; with KB-V1 it was 1600 nM; in the experiment with M1, 190 nM; in [1] (purified holoenzyme, 3–4 μg protein, pH 8.1, 30°C, read-out: half-maximal inhibition concentration of purified V-ATPase), around 60 nM; in the experiment on A-594 it was 310 nM. Moreover, in experiment [1] (equivalent of the half-maximal concentration), the “IC50 per mg of protein, purified V-ATPase” value is ~2.4 nmol per mg of protein. The “inhibition of bacterial growth” value with bacterial growth was “failed to inhibit”.

Take archazolid: the “ATPase activity reduced to (remaining activity)” value on F-ATPase [2] (inhibitor 1 μM) and at F-ATPase [3] (inhibitor 1 μM) was “approximately 80%” throughout. In addition, the “effect of increased inhibitor concentration on F-ATPase activity” value at F-ATPase [2] (inhibitor 10 μM) and at F-ATPase [3] (inhibitor 10 μM) was “no substantial effect” in each case. In addition, the activity against fungi entry with fungi is given as “weak activity”.

For salicylihalamide, the “IC50 per mg of protein, purified V-ATPase” value in [4] is “ca. 0.5 nmol per mg of protein”. In addition, the IC50 in [4] (read-out: half-maximal inhibition concentration of purified V-ATPase) was around 10 nM. Besides, the “labelling of / binding to subunit c” value on Vo subunit c is recorded as “does not bind to subunit c”. In the experiment with bacterial growth, the “inhibition of bacterial growth” value is given as “failed to inhibit”. Also, in the experiment on mammalian V-ATPases, the “inhibition of mammalian V-ATPases” value is “effectively inhibited”. Moreover, the “inhibition of V-ATPases from fungi” value in the experiment on V-ATPases from fungi is “not at all”.
